{"source": "patent US20110263454A1", "about": "“Methods of Identifying Functional Characteristics of Promoters, Transcription Modifying Proteins and Transcription Modulating Agents” (Salk Institute for Biological Studies, priority 2008, published 2011)", "key": {"pre-adipocytes": {"system": "pre-adipocytes", "settings": "treatment of pre-adipocytes; Hutley 2004, Newell 2006; cited from earlier work"}, "[1]": {"system": "FGF1A mRNA in white adipose tissue (WAT)", "experiment": "FGF1A mRNA in white adipose tissue after PPARγ ligand treatment", "assay_type": "in vivo", "settings": "fed mice, oral 5 mg/kg for 3 days", "procedure": "To test this hypothesis the expression of FGF1A in response to feeding, fasting and PPARγ ligand treatment was determined (FIG. 47, left panel)."}, "TRAP expression": {"system": "TRAP expression", "settings": "human peripheral mononuclear cells; Reddy 1996; cited from earlier work"}}, "data": [{"compound": "recombinant FGF1: recombinant FGF1, fibroblast growth factor polypeptide", "values": [{"measurement": "effect on pre-adipocytes", "setting": "pre-adipocytes", "result": "increased proliferation and adipogenesis"}]}, {"compound": "CN(CCOc1ccc(CC2SC(=O)NC2=O)cc1)c1ccccn1", "note": "(stereo not drawn) [BRL, BRL49653 (Rosiglitazone)]", "values": [{"measurement": "mRNA levels of FGF1A", "setting": "[1]", "result": "significantly increased"}]}, {"compound": "ferric protoporphyrin IX [hemin]", "values": [{"measurement": "TRAP expression at the transcriptional level", "setting": "TRAP expression", "result": "inhibited"}]}]}
